Common to all, as to experiment: growth of human tumour cells (NCI), 48 h
The test system of assay [1] is RXF 393.
Assay [2] relates to DLD-1.
The test system of assay [3] is RPMI-8226.
The subject of assay [4] is SK-MEL-28.
Assay [5] concerns Malme-3M.
Assay [6] relates to NCI-H522.
Assay [7] concerns LOX IMVI.
Assay [8] deals with KM12.
Assay [9] concerns U-251.
The subject of assay [10] is A549.
For assay [11], the system named is NCI-H23.
The test system of assay [12] is HL-60.
Assay [13] relates to OVCAR-3.
Assay [14] deals with COLO 205.
Assay [15] has as its system NCI-H460.
The test system of assay [16] is LXFL 529.
Assay [17] deals with DMS-273.

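Values below derive from 48-hour exposures of cells grown in 96-well plates, with endpoints linearly interpolated between the two concentrations bracketing the appropriate inhibition level. GI50 is the concentration that inhibits growth by half.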 The source made the active and inactive calls. Cut-off read from the data, not from the text of the source: active = GI50 up to about 1.1 µM and inactive = higher.

With `COc1cc([C@@H]2c3cc4c(cc3[C@@H](NCc3ccccc3F)C3COC(=O)[C@@H]32)OCO4)cc(OC)c1O` (stereo partly specified), the GI50 in assay [1] is 5.18 µM (inactive); in assay [2], 11.9 µM (inactive); in [3] it was 1.93 µM (inactive); in [4], 12.2 µM (inactive); in assay [5], 5.94 µM (inactive); in [6], 0.361 µM (active). The GI50 in assay [7] was 3.07 µM (inactive); in assay [8] it was 3.99 µM (inactive); in assay [9] it was 1.89 µM (inactive); in assay [10], 0.933 µM (active); in assay [11] it was 2.29 µM (inactive); in [12], 1.18 µM (inactive). Also, the GI50 is 15.6 µM (inactive) in assay [13]; 17.7 µM (inactive) in assay [14]; 0.56 µM (active) in assay [15]; 11.3 µM (inactive) in assay [16]; 1.21 µM (inactive) in assay [17].

On to `COc1ccc(/N=C(/[N-]n2c(=O)c(C)nn(C)c2=S)N(c2ccc(OC)cc2)c2n[n+]3c(=O)c(C)nn(C)c3s2)cc1`, for which the GI50 in assay [1], in [2], in assay [3], in assay [4], in assay [6] and in assay [7] was > 100 µM (inactive) throughout. Besides, the GI50 in [8], in [9], in [10], in assay [11], in assay [12] and in assay [14] was > 100 µM (inactive) in each case. In addition, the GI50 in [15], in assay [16] and in assay [17] was > 100 µM (inactive) in each case.

As for `CCCCCCCCCCCCCCCCOP(=O)(O)Oc1ccc(/C=C\c2ccc(OP(=O)(O)OCCCCCCCCCCCCCCCC)cc2)cc1`, the GI50 in [1] is 2.47 µM (inactive); in assay [2], > 100 µM (inactive); in assay [3], 19.3 µM (inactive); in [4], > 100 µM (inactive); in assay [5] it was > 100 µM (inactive); in [6] it was 29.6 µM (inactive). Further, the GI50 in assay [7] was > 100 µM (inactive); in assay [8], 56.2 µM (inactive); in [9], 34 µM (inactive); in assay [10], 82.4 µM (inactive); in assay [11], 23.5 µM (inactive); in [12], 26 µM (inactive). Moreover, the GI50 in assay [13] is 43.2 µM (inactive); in assay [14], 17.5 µM (inactive); in assay [15], 56.4 µM (inactive); in assay [16], 28.3 µM (inactive); in [17], 25.1 µM (inactive).

As to `CCOC(=O)c1ccc(/N=N/c2cc(C(=O)OCC)ccc2O)cc1`, the GI50 in assay [1] is > 100 µM (inactive); in [2], > 100 µM (inactive); in [3], > 100 µM (inactive); in [4], > 100 µM (inactive); in [6], 41.9 µM (inactive); in assay [7], > 100 µM (inactive). Moreover, the GI50 in assay [9], in assay [10], in assay [11], in assay [12], in assay [14] and in assay [15] was > 100 µM (inactive) in each case. In addition, the GI50 in assay [16] and in assay [17] was > 100 µM (inactive) in each case.

In the case of `Cc1cc(NS(=O)(=O)c2ccc(Nc3c4ccccc4nc4c(C(=O)N5CCN(CCO)CC5)cccc34)cc2)no1`, the GI50 in assay [1] was 22.3 µM (inactive); in assay [2], > 100 µM (inactive); in assay [4] it was > 100 µM (inactive); in assay [5] it was > 100 µM (inactive); in assay [6], 79.4 µM (inactive); in [7], 39.5 µM (inactive). For the same compound, the GI50 in assay [8] is > 100 µM (inactive); in assay [9], > 100 µM (inactive); in assay [10], > 100 µM (inactive); in assay [11] it was > 100 µM (inactive); in assay [12], 47.6 µM (inactive); in assay [13], > 100 µM (inactive). Further, the GI50 in assay [14], in assay [15], in assay [16] and in [17] was > 100 µM (inactive) throughout.

Regarding `CC(=O)CC(=O)Nc1ccccc1[N+](=O)[O-]`, the GI50 in assay [1], in assay [2], in assay [3], in [4], in assay [5] and in [6] was > 100 µM (inactive) each time. The GI50 in assay [8], in assay [9], in assay [10], in assay [11], in assay [12] and in [13] was > 100 µM (inactive) each time. In addition, the GI50 in [14], in assay [15], in assay [16] and in assay [17] was > 100 µM (inactive) throughout.

For the compound `Cc1nc2c(o1)/C(=N\c1ccccc1)c1nc(C)oc1/C2=N/c1ccccc1`, the GI50 in [1] was 20.6 µM (inactive); in [2], 25.5 µM (inactive); in assay [3] it was 29.6 µM (inactive); in assay [4], 23.9 µM (inactive); in assay [5] it was 19.4 µM (inactive); in [6], 21.7 µM (inactive). In addition, the GI50 in assay [7] was 28.2 µM (inactive); in assay [9], 17.7 µM (inactive); in assay [10] it was 24.8 µM (inactive); in [11] it was 25.9 µM (inactive); in assay [12] it was 49.9 µM (inactive); in assay [13], 39.2 µM (inactive). For the same compound, the GI50 in assay [14] is 33.1 µM (inactive); in assay [15], 29.3 µM (inactive); in assay [16], 20.8 µM (inactive); in assay [17] it was 20 µM (inactive).

Consider `CC1=C(C(=O)CC(=O)C(=O)Nc2ccccc2C(F)(F)F)Sc2ccccc2N1`, for which the GI50 in [1] was 15.8 µM (inactive); in assay [2] it was 76 µM (inactive); in assay [3] it was 60 µM (inactive); in [5], > 100 µM (inactive); in [6], 24.5 µM (inactive); in assay [7], 59.3 µM (inactive). Further, the GI50 was 39.1 µM (inactive) in assay [8]; 64.9 µM (inactive) in assay [9]; 51.1 µM (inactive) in assay [10]; 22.1 µM (inactive) in assay [11]; 35.4 µM (inactive) in assay [12]; 25.4 µM (inactive) in assay [13]. Further, the GI50 was > 100 µM (inactive) in [14], 57.1 µM (inactive) in [15], 35.7 µM (inactive) in assay [16] and 40.2 µM (inactive) in [17].

As to `[N-]=[N+]=NC(CCl)c1cn([C@H]2C[C@H](O)[C@@H](CO)O2)c(=O)[nH]c1=O` (stereo partly specified), the GI50 in [1], in assay [2], in assay [3], in assay [4], in [5] and in assay [6] was > 100 µM (inactive) throughout. The GI50 in assay [7], in assay [8], in assay [9], in [10], in assay [11] and in assay [12] was > 100 µM (inactive) in each case. Also, the GI50 in [13], in assay [14], in assay [15], in [16] and in [17] was > 100 µM (inactive) in each case.

In the case of `CCCn1c(SCCSc2c3ccccc3c(-c3nc(F)nc(F)n3)n2CCC)c2ccccc2c1-c1nc(F)nc(F)n1`, the GI50 in assay [1] was > 100 µM (inactive); in assay [2], 20.5 µM (inactive); in [3], 27.3 µM (inactive); in assay [4], > 100 µM (inactive); in assay [5] it was > 100 µM (inactive); in assay [6], > 100 µM (inactive). Further, the GI50 in [8], in assay [9], in assay [10], in [11], in assay [12] and in assay [13] was > 100 µM (inactive) throughout. For the same compound, the GI50 was 38 µM (inactive) in assay [14], > 100 µM (inactive) in assay [15], 88.9 µM (inactive) in [16] and > 100 µM (inactive) in [17].

Take `Cn1c(=O)c2ccc(-c3ccc(Br)cc3)nc2n(C)c1=O`: the GI50 in assay [2], in [3], in assay [4], in assay [5], in assay [6] and in assay [7] was > 100 µM (inactive) in each case. Also, the GI50 is > 100 µM (inactive) in [8]; > 100 µM (inactive) in assay [9]; > 100 µM (inactive) in assay [10]; 51.2 µM (inactive) in assay [11]; > 100 µM (inactive) in [12]; > 100 µM (inactive) in assay [13]. In addition, the GI50 in [14], in assay [15], in assay [16] and in assay [17] was > 100 µM (inactive) each time.

With `COC(=O)C(=O)C(C(=O)C(=O)Nc1ccc([N+](=O)[O-])cc1C#N)c1nc2ccc([N+](=O)[O-])cc2nc1O` (stereo unspecified), the GI50 in assay [1], in assay [2], in assay [3], in assay [5], in assay [6] and in assay [7] was > 100 µM (inactive) each time. The GI50 in assay [8], in assay [9], in [10], in assay [12], in [13] and in assay [14] was > 100 µM (inactive) throughout. Moreover, the GI50 in assay [15], in [16] and in assay [17] was > 100 µM (inactive) throughout.

(Values after ChEMBL document CHEMBL1201862, “PubChem BioAssay data set” (2004).)
